Assay results reported in US12030896B2, “PIKfyve inhibitors” (Mayo Foundation for Medical Education and Research, priority 2018, dated 2024).

How the values were obtained:
[1] = tested on: MPNST cells lines (S462, S462TY, 26T, T265, SNF96.2); test: Cytotoxicity against MPNST cell lines; conditions: DMEM-based medium
Source text: For this reason, it was hypothesized that tumor cells that have activated RAS would have increased sensitivity to this compound. Malignant peripheral nerve sheath tumors (MPNSTs) arise in the population sporadically, and with very high frequency in patients with NF1 mutation. NF1 is a RAS suppressor, and therefore, tumors arising in the NF1-mutant background, have apriori activation of the RAS signaling pathway.

[2] = tested on: Human lymphoma cell lines; test: Killing of human lymphoma cell lines; assay type: cell-based; conditions: 72 hours
Method: Human lymphoma cell lines were incubated for 72 hours with various concentrations of the compound, and survival determined by cell counting or by ATP assay, as shown in FIG. 7. In the lymphoma experiments, RPMI media (Life Technologies) was used as the base formulation for “complete” media. Trypsin was not needed for these non-adherent cell lines. For the “cell-counting” data, cells were pipetted up and down to evenly disburse, then 10 μL of the suspension was counted using an Accuri C6 cytometer, using on forward and side scatter to gate on a viable population.

U251 glioblastoma cells = test: LC3 / p62 western blotting (autophagy); assay type: cell-based, human
Method: Macroautophagy (hereafter “autophagy”) is a process that requires precise fusion of endosomes, autophagosomes, and lysosomes. Lysates from cells treated with Example 1 were prepared and probed by western blotting for LC3-I and LC3-II. Increased levels of LC3-II and increased p62 (sequestesome) were found showing the increased drive to undergo autophagy, in the face of inability to complete the process (i.e. ineffective autophagy). Lysosomes are the final destination of proteins destined for degradation by autophagy, and proteolysis in this organelle depends upon cathepsins among other enzymes.
FIG. 23 contains images showing induction of autophagy the Example 1 as evidenced by accumulation of LC3 over time. U251 glioblastoma cells were treated with 25, 500, or 20,000 nM MC042 for the indicated time periods, and then lysates prepared and blotted for LC3 and tubulin (loading control). Starting a t 6 hours, and becoming more evident by 24 hours, LC3-II (the lower band marked LC3) accumulated, indicating activation of autophagy.

SMILES	sensitivity to compound-induced death [1]	cell killing [2]	induction of LC3 (U251 glioblastoma cells; 1 μM)	p62 degradation (U251 glioblastoma cells; 25, 500, or 20,000 nM)	LC3-II level (U251 glioblastoma cells; 25, 500, or 20,000 nM, starting at 6 hours, more evident by 24 hours)
Cc1ccc(Nc2nc(N/N=C/c3c[nH]c4ccccc34)cc(N3CCOCC3)n2)cc1 [Example 3, (E)-4-(2-((1H-indol-3-yl)methylene)hydrazinyl)-6-morpholino-N-(p-tolyl)pyrimidin-2-amine]	highly sensitive				
Cc1ccc(Nc2nc(N/N=C/c3c[nH]c4ccccc34)nc(N3CCOCC3)n2)cc1 [Example 1, (E)-4-(2-((1H-indol-3-yl)methylene)hydrazinyl)-6-morpholino-N-(p-tolyl)-1,3,5-triazin-2-amine]		killing	less robust	not degraded	accumulated
